According to US12630600B2 (MEDIMMUNE LIMITED, priority 2022, dated 2026):
Where two headings read alike, the source gives them in different places. One block for each molecule: values may come before it. Starred links: 1 amine or outer side, 2 acyl side, 3 side chain; linkers in the order of their positions; H or OH if unused. Non-standard residues stand in square brackets, D forms with d. Residues, ends and D or L forms follow the SMILES beside them. Groups on a side chain read outwards from the residue. *: point of attachment. C20 diacid = O=C(O)CCCCCCCCCCCCCCCCCCC(=O)*; C18 diacid = O=C(O)CCCCCCCCCCCCCCCCC(=O)*; Dip = N[C@H](C(=O)O)C(c1ccccc1)c1ccccc1; γGlu = O=C(O)[C@H](CCC(=O)[*:2])N[*:1]; Stearoyl = CCCCCCCCCCCCCCCCCC(=O)*; αMeF = C[C@](N)(Cc1ccccc1)C(=O)O; PEG2 = NCCOCCOCCC(=O)O; AEEA = NCCOCCOCC(=O)O; Aib = CC(C)(N)C(=O)O

How the values were obtained:
[1] = target: T1, human GLP-1 receptor (hGLP-1R) (Homo sapiens, UniProt P43220); assay: cAMP production (HTRF) in CHO cells expressing human GLP-1 receptor; format: cell-based; details: for EC50: cAMP, geometric mean; for % Relative Potency Ratio: % GLP-1R activity relative to GLP-1 / % GlucR activity relative to glucagon
T1 construct: expressed in transfected cells; host or cells: CHO

[2] = target: T2, human glucagon receptor (hGCGR) (Homo sapiens, UniProt P47871); assay: cAMP production (HTRF) in CHO cells expressing human glucagon receptor; format: cell-based
T2 construct: expressed in transfected cells; host or cells: CHO
Procedure: Cells were re-suspended in assay buffer at a batch-dependent optimized concentration (typically hGLP-1R cells at 1×10^5 cells/mL, hGCGR cells at 2×10^5 cells/mL).
Cells were added to the assay plate using a multidrop dispenser and incubated at room temperature for 30 minutes before measuring the cAMP level using a cAMP dynamic 2 homogeneous time resolved Fluorescence (HTRF) kit (Cisbio Bioassays #62AM4PEJ) following the two-step protocol as per manufacturer's recommendations. In brief, anti-cAMP cryptate (donor fluorophore) and cAMP-d2 (acceptor fluorophore) were made up separately by diluting each 1 in 20 in conjugate and lysis buffer provided in the kit. Anti-cAMP cryptate was added to all wells of the assay plate, followed by cAMP-d2 added to all wells except non-specific binding (NSB) wells (to which conjugate and lysis buffer was added).
Data was transformed to % Delta F as described in the manufacturer's guidelines and analyzed by 4-parameter logistic fit to determine EC50 values.

[3] = Table 6, modification at position 17, CHO cells expressing hGCGR, geometric mean, read-out: hGluc-R EC50

T1 sequence (P43220 24-463): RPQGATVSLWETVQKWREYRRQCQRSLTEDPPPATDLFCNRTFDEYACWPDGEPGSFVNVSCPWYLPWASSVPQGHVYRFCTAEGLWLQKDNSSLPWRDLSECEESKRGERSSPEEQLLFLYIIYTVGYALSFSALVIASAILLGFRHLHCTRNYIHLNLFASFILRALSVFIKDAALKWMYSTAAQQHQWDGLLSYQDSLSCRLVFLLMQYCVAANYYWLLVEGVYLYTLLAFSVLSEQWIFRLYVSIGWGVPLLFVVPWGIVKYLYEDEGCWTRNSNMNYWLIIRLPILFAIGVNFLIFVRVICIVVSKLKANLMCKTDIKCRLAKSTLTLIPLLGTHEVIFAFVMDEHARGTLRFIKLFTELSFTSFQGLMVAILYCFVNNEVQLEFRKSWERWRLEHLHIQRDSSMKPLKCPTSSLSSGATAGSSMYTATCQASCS
T2 sequence (P47871 26-477): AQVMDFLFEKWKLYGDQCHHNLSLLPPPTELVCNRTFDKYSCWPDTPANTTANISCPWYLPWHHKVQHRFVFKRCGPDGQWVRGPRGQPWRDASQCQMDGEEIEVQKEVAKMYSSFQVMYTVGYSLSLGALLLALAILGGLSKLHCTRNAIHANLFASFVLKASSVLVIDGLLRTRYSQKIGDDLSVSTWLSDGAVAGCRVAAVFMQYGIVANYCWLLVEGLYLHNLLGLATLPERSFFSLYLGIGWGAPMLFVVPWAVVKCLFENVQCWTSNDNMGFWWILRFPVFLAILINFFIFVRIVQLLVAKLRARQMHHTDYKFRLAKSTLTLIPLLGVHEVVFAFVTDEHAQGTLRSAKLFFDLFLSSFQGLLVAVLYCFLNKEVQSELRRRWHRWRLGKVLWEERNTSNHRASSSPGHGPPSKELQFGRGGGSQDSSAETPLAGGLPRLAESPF

SMILES: CC[C@H](C)[C@H](NC(=O)[C@H](Cc1c[nH]c2ccccc12)NC(=O)[C@H](CCCCNC(=O)CC[C@H](NC(=O)CC[C@H](NC(=O)CCOCCOCCNC(=O)CC[C@H](NC(=O)CC[C@H](NC(=O)CCCCCCCCCCCCCCCCCCC(=O)O)C(=O)O)C(=O)O)C(=O)O)C(=O)O)NC(=O)[C@@H](NC(=O)[C@H](Cc1ccccc1)NC(=O)[C@H](CC(=O)O)NC(=O)[C@H](CCC(N)=O)NC(=O)[C@H](C)NC(=O)[C@H](C)NC(=O)[C@H](CCC(N)=O)NC(=O)[C@H](CO)NC(=O)[C@H](CC(=O)O)NC(=O)[C@H](CC(C)C)NC(=O)[C@](C)(Cc1ccccc1)NC(=O)[C@H](CCCCN)NC(=O)[C@H](CO)NC(=O)[C@@H](NC(=O)[C@H](CC(=O)O)NC(=O)[C@H](CO)NC(=O)[C@@H](NC(=O)[C@](C)(Cc1ccccc1)NC(=O)[C@H](CO)NC(=O)CNC(=O)[C@H](Cc1c[nH]cn1)NC(=O)C(C)(C)NC(=O)[C@@H](N)Cc1c[nH]cn1)[C@@H](C)O)C(C)C)C(C)C)C(=O)N[C@@H](C)C(=O)N[C@@H](CC(N)=O)C(=O)N[C@H](C(N)=O)[C@@H](C)O [Peptide 357]
% Relative Potency Ratio ([1]; Table 8): 1.2
EC50 ([1]; hGLP-1R EC50 (pM), Table 8, peptides modified at position 24, CHO cells): 917 pM
EC50 ([2]; hGluc-R EC50 (pM), Table 8, peptides modified at position 24, geometric mean, CHO cells): 550 pM

SMILES: CCCCCCCCCCCCCCCCCC(=O)N[C@@H](CCC(=O)N[C@@H](CCC(=O)NCCOCCOCCC(=O)NCCOCCOCCC(=O)NCCCC[C@H](NC(=O)[C@H](CO)NC(=O)[C@H](CC(=O)O)NC(=O)[C@H](CC(C)C)NC(=O)[C@](C)(Cc1ccccc1)NC(=O)[C@H](CCCCN)NC(=O)[C@H](CO)NC(=O)[C@@H](NC(=O)[C@H](CC(=O)O)NC(=O)[C@H](CO)NC(=O)[C@@H](NC(=O)[C@](C)(Cc1ccccc1)NC(=O)[C@H](CO)NC(=O)CNC(=O)[C@H](CCC(N)=O)NC(=O)[C@H](CO)NC(=O)[C@@H](N)Cc1c[nH]cn1)[C@@H](C)O)C(C)C)C(=O)N[C@@H](C)C(=O)N[C@@H](C)C(=O)N[C@@H](CCC(N)=O)C(=O)N[C@@H](CC(=O)O)C(=O)N[C@@](C)(Cc1ccccc1)C(=O)N[C@H](C(=O)N[C@@H](CCC(N)=O)C(=O)NC(C)(C)C(=O)N[C@H](C(=O)N[C@@H](C)C(=O)N[C@@H](CC(N)=O)C(=O)N[C@H](C(N)=O)[C@@H](C)O)[C@@H](C)CC)C(C)C)C(=O)O)C(=O)O [Peptide 82] (H-HSQGS[αMeF]TSDVSK[αMeF]LDSK([PEG2-PEG2-γGlu-γGlu-Stearoyl])AAQD[αMeF]VQ[Aib]IANT-NH2; N-terminus assumed)
EC50 [2, 3]: 7.77 pM

SMILES: CC(C)C[C@H](NC(=O)[C@H](Cc1c[nH]c2ccccc12)NC(=O)[C@H](CCCNC(=N)N)NC(=O)[C@@H](NC(=O)[C@H](Cc1ccccc1)NC(=O)[C@H](CC(=O)O)NC(=O)[C@H](CCCNC(=N)N)NC(=O)[C@H](C)NC(=O)[C@H](CCCNC(=N)N)NC(=O)[C@H](CCCCNC(=O)CC[C@H](NC(=O)CC[C@H](NC(=O)COCCOCCNC(=O)COCCOCCNC(=O)CC[C@H](NC(=O)CC[C@H](NC(=O)CCCCCCCCCCCCCCCCC(=O)O)C(=O)O)C(=O)O)C(=O)O)C(=O)O)NC(=O)[C@H](CO)NC(=O)[C@H](CC(=O)O)NC(=O)[C@H](CC(C)C)NC(=O)[C@](C)(Cc1ccccc1)NC(=O)[C@H](CCCCN)NC(=O)[C@H](CO)NC(=O)[C@@H](NC(=O)[C@H](CC(=O)O)NC(=O)[C@H](CO)NC(=O)[C@@H](NC(=O)[C@H](Cc1ccccc1)NC(=O)[C@@H](NC(=O)CNC(=O)[C@H](CCC(N)=O)NC(=O)C(C)(C)NC(=O)[C@@H](N)Cc1c[nH]cn1)[C@@H](C)O)[C@@H](C)O)C(C)C)C(C)C)C(=O)N[C@@H](CC(C)C)C(=O)N[C@@H](CCC(=O)O)C(=O)NC(C)(C)C(=O)NCC(=O)O [Peptide 136] (H-H[Aib]QGTFTSDVSK[αMeF]LDSK([γGlu-γGlu-AEEA-AEEA-γGlu-γGlu-C18 diacid])RARDFVRWLLE[Aib]G-OH; N-terminus assumed)
EC50 [2, 3]: 509 pM

Results, then the molecule that gave them:

EC50 ([1]; Table 7, modification at position 20, CHO cells expressing hGLP-1R, read-out: hGLP-1R EC50): 198 pM
% Relative Potency Ratio ([1]; Table 7): 196.1
% Relative Potency Ratio ([1]; Table 8): 4.2
EC50 ([2]; Table 7, modification at position 20, CHO cells expressing hGCGR, geometric mean, read-out: hGluc-R EC50): 19600 pM
SMILES: CC[C@H](C)[C@H](NC(=O)[C@H](Cc1c[nH]c2ccccc12)NC(=O)[C@H](CCCCNC(=O)CC[C@H](NC(=O)CCCCCCCCCCCCCCCCC(=O)O)C(=O)O)NC(=O)[C@@H](NC(=O)[C@H](Cc1ccccc1)NC(=O)[C@H](CC(=O)O)NC(=O)[C@H](CCC(N)=O)NC(=O)[C@H](C)NC(=O)[C@H](C)NC(=O)[C@H](CCCNC(=N)N)NC(=O)[C@H](CO)NC(=O)[C@H](CC(=O)O)NC(=O)[C@H](CC(C)C)NC(=O)[C@@H](NC(=O)[C@H](CCCCN)NC(=O)[C@H](CO)NC(=O)[C@@H](NC(=O)[C@H](CC(=O)O)NC(=O)[C@H](CO)NC(=O)[C@@H](NC(=O)[C@H](Cc1ccccc1)NC(=O)[C@H](CO)NC(=O)CNC(=O)[C@H](CCC(N)=O)NC(=O)C(C)(C)NC(=O)[C@@H](N)Cc1c[nH]cn1)[C@@H](C)O)C(C)C)C(c1ccccc1)c1ccccc1)C(C)C)C(=O)N[C@@H](C)C(=O)N[C@@H](CC(N)=O)C(=O)N[C@H](C(N)=O)[C@@H](C)O [Peptide 343] (H-H[Aib]QGSFTSDVSK[Dip]LDSRAAQDFVK([γGlu-C18 diacid])WIANT-NH2)

EC50 ([1]; Table 10, peptides modified at position 13, CHO cells, read-out: hGLP-1R EC50): 1040 pM
% Relative Potency Ratio ([1]; Table 10): 16.3
EC50 ([2]; Table 10, peptides modified at position 13, geometric mean, CHO cells, read-out: hGluc-R EC50): 8590 pM
SMILES: CC[C@H](C)[C@H](NC(=O)C(C)(C)NC(=O)[C@H](CCC(N)=O)NC(=O)[C@@H](NC(=O)[C@](C)(Cc1ccccc1)NC(=O)[C@H](CC(=O)O)NC(=O)[C@H](CCC(N)=O)NC(=O)[C@H](C)NC(=O)[C@H](C)NC(=O)[C@H](CCCNC(=N)N)NC(=O)[C@H](CO)NC(=O)[C@H](CC(=O)O)NC(=O)[C@H](CC(C)C)NC(=O)[C@H](CCCCNC(=O)COCCOCCNC(=O)COCCOCCNC(=O)CC[C@H](NC(=O)CC[C@H](NC(=O)CCCCCCCCCCCCCCCCCCC(=O)O)C(=O)O)C(=O)O)NC(=O)[C@H](CCCCN)NC(=O)[C@H](CO)NC(=O)[C@@H](NC(=O)[C@H](CC(=O)O)NC(=O)[C@H](CO)NC(=O)[C@@H](NC(=O)[C@](C)(Cc1ccccc1)NC(=O)[C@H](CO)NC(=O)CNC(=O)[C@H](Cc1c[nH]cn1)NC(=O)C(C)(C)NC(=O)[C@@H](N)Cc1c[nH]cn1)[C@@H](C)O)C(C)C)C(C)C)C(=O)N[C@@H](C)C(=O)N[C@@H](CC(N)=O)C(=O)N[C@H](C(N)=O)[C@@H](C)O [Peptide 405] (H-H[Aib]HGS[αMeF]TSDVSKK([AEEA-AEEA-γGlu-γGlu-C20 diacid])LDSRAAQD[αMeF]VQ[Aib]IANT-NH2)

EC50 ([2]; Table 9, peptides modified at position 10, geometric mean, CHO cells, read-out: hGluc-R EC50): 9.55 pM
SMILES: CCCCCCCCCCCCCCCC(=O)N[C@@H](CCC(=O)NCCOCCOCCC(=O)NCCOCCOCCC(=O)NCCCC[C@H](NC(=O)[C@H](CC(=O)O)NC(=O)[C@H](CO)NC(=O)[C@@H](NC(=O)[C@H](Cc1ccccc1)NC(=O)[C@H](CO)NC(=O)CNC(=O)[C@H](CCC(N)=O)NC(=O)C(C)(C)NC(=O)[C@@H](N)Cc1c[nH]cn1)[C@@H](C)O)C(=O)N[C@@H](CO)C(=O)N[C@@H](CCCCN)C(=O)N[C@H](C(=O)N[C@@H](CC(C)C)C(=O)N[C@@H](CC(=O)O)C(=O)N[C@@H](CO)C(=O)N[C@@H](CCCNC(=N)N)C(=O)N[C@@H](C)C(=O)N[C@@H](C)C(=O)N[C@@H](CCC(N)=O)C(=O)N[C@@H](CC(=O)O)C(=O)N[C@@H](Cc1ccccc1)C(=O)N[C@H](C(=O)N[C@@H](CCC(=O)O)C(=O)N[C@@H](Cc1c[nH]c2ccccc12)C(=O)N[C@H](C(=O)N[C@@H](C)C(=O)N[C@@H](CC(N)=O)C(=O)N[C@H](C(N)=O)[C@@H](C)O)[C@@H](C)CC)C(C)C)[C@@H](C)CC)C(=O)O [Peptide 395]
